According to PubChem BioAssay (NCI):
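Growth conditions: 96-well plates. Treatment: test compound, 48 hours, 5 concentrations. Analysis: linear interpolation between bracketing concentrations; unreached endpoints set to highest concentration. TGI: concentration producing complete growth inhibition.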

Legend:
Assay in all cases: DTP human tumour cell line panel, 48 h
[1] = tested on: SF-539 CNS
[2] = tested on: MOLT-4 leukemia
[3] = tested on: ACHN renal
[4] = tested on: SNB-75 CNS
[5] = tested on: SK-OV-3 ovarian
[6] = tested on: HT29 colon
[7] = tested on: A549 NSCLC
[8] = tested on: SK-MEL-2 melanoma
[9] = tested on: CAKI-1 renal
[10] = tested on: COLO 205 colon
[11] = tested on: SNB-78 CNS
[12] = tested on: CCRF-CEM leukemia
[13] = tested on: SF-295 CNS
[14] = tested on: A498 renal
[15] = tested on: OVCAR-4 ovarian
[16] = tested on: SK-MEL-28 melanoma
[17] = tested on: M14 melanoma
[18] = tested on: SW-620 colon
[19] = tested on: RPMI-8226 leukemia
[20] = tested on: HCT-15 colon
[21] = tested on: HCC-2998 colon
[22] = tested on: NCI-H23 lung
[23] = tested on: UACC-257 melanoma
[24] = tested on: HOP-92 NSCLC
[25] = tested on: KM20L2 colon
[26] = tested on: 786-0 renal
[27] = tested on: UO-31 renal
[28] = tested on: HOP-18 NSCLC
[29] = tested on: XF 498 CNS
[30] = tested on: EKVX NSCLC
[31] = tested on: M19-MEL melanoma
[32] = tested on: OVCAR-3 ovarian
[33] = tested on: HOP-62 NSCLC
[34] = tested on: UACC-62 melanoma
[35] = tested on: K-562 leukemia
[36] = tested on: LOX IMVI melanoma
[37] = tested on: MALME-3M melanoma
[38] = tested on: IGROV1 ovarian
[39] = tested on: KM12 colon
[40] = tested on: SF-268 CNS
[41] = tested on: NCI-H522 lung
[42] = tested on: RXF-631 renal
[43] = tested on: TK-10 renal
[44] = tested on: HCT-116 colon
[45] = tested on: RXF 393 renal
[46] = tested on: SN12C renal
[47] = tested on: DLD-1 colon
[48] = tested on: U251 CNS
[49] = tested on: DMS 273 small cell lung
[50] = tested on: NCI-H460 lung
[51] = tested on: OVCAR-5 ovarian
[52] = tested on: SK-MEL-5 melanoma
[53] = tested on: LXFL 529 NSCLC
[54] = tested on: OVCAR-8 ovarian
[55] = tested on: SNB-19 CNS
[56] = tested on: HL-60(TB) leukemia
[57] = tested on: NCI-H226 lung
[58] = tested on: SR leukemia
[59] = tested on: DMS 114 small cell lung

Cc1cc(C)nc(NS(=O)(=O)c2ccc(NC(=O)c3cccc4c(Nc5ccc(S(=O)(=O)N=C(N)N)cc5)c5ccccc5nc34)cc2)n1
TGI [1]: > 100 µM | TGI [2]: > 100 µM | TGI [3]: > 100 µM | TGI [4]: > 100 µM | TGI [5]: > 100 µM | TGI [6]: > 100 µM | TGI [7]: > 100 µM | TGI [8]: > 100 µM | TGI [9]: 55.2 µM | TGI [10]: > 100 µM | TGI [11]: 99.2 µM | TGI [12]: > 100 µM | TGI [13]: > 100 µM | TGI [14]: > 100 µM | TGI [15]: 43.7 µM | TGI [16]: 99.8 µM | TGI [17]: > 100 µM | TGI [18]: 42.4 µM | TGI [19]: > 100 µM | TGI [20]: > 100 µM | TGI [21]: 22.6 µM | TGI [22]: > 100 µM | TGI [23]: 60 µM | TGI [24]: 81.7 µM | TGI [25]: > 100 µM | TGI [26]: 83.6 µM | TGI [27]: > 100 µM | TGI [28]: > 100 µM | TGI [29]: > 100 µM | TGI [30]: 83.2 µM | TGI [31]: > 100 µM | TGI [32]: 35.5 µM | TGI [33]: 94.3 µM | TGI [34]: > 100 µM | TGI [35]: > 100 µM | TGI [36]: > 100 µM | TGI [37]: > 100 µM | TGI [38]: > 100 µM | TGI [39]: 26.9 µM | TGI [40]: > 100 µM | TGI [41]: > 100 µM | TGI [42]: > 100 µM | TGI [43]: 92.3 µM | TGI [44]: > 100 µM | TGI [45]: 52 µM | TGI [46]: > 100 µM | TGI [47]: 42.8 µM | TGI [48]: > 100 µM | TGI [49]: 80.6 µM | TGI [50]: > 100 µM | TGI [51]: > 100 µM | TGI [52]: > 100 µM | TGI [53]: 59.1 µM | TGI [54]: > 100 µM | TGI [55]: > 100 µM | TGI [56]: 26.6 µM

C#CCn1c(=O)[nH]c(=O)c2cccnc21
TGI [2]: > 100 µM | TGI [3]: > 100 µM | TGI [4]: > 100 µM | TGI [5]: > 100 µM | TGI [7]: > 100 µM | TGI [8]: > 100 µM | TGI [9]: > 100 µM | TGI [10]: > 100 µM | TGI [11]: > 100 µM | TGI [13]: > 100 µM | TGI [15]: > 100 µM | TGI [16]: > 100 µM | TGI [17]: > 100 µM | TGI [18]: > 100 µM | TGI [19]: > 100 µM | TGI [20]: > 100 µM | TGI [21]: > 100 µM | TGI [57]: > 100 µM | TGI [58]: > 100 µM | TGI [22]: > 100 µM | TGI [23]: > 100 µM | TGI [24]: > 100 µM | TGI [25]: > 100 µM | TGI [26]: > 100 µM | TGI [28]: > 100 µM | TGI [29]: > 100 µM | TGI [33]: > 100 µM | TGI [36]: > 100 µM | TGI [37]: > 100 µM | TGI [39]: > 100 µM | TGI [40]: > 100 µM | TGI [41]: > 100 µM | TGI [42]: > 100 µM | TGI [43]: > 100 µM | TGI [44]: > 100 µM | TGI [45]: > 100 µM | TGI [46]: > 100 µM | TGI [47]: > 100 µM | TGI [48]: > 100 µM | TGI [49]: > 100 µM | TGI [51]: > 100 µM | TGI [52]: > 100 µM | TGI [53]: > 100 µM | TGI [55]: > 100 µM | TGI [56]: > 100 µM

CCOC(=O)NC(=O)c1cn(CCN2CCN(C(=O)CCCCCCCCCCNc3ncnc4c3ncn4C3OC(CO)C(O)C3O)CC2)c(=O)[nH]c1=O (stereo not drawn)
TGI [2]: > 100 µM | TGI [3]: > 100 µM | TGI [4]: > 100 µM | TGI [5]: > 100 µM | TGI [6]: > 100 µM | TGI [7]: > 100 µM | TGI [8]: > 100 µM | TGI [9]: > 100 µM | TGI [10]: > 100 µM | TGI [11]: > 100 µM | TGI [12]: > 100 µM | TGI [13]: > 100 µM | TGI [14]: > 100 µM | TGI [16]: > 100 µM | TGI [17]: > 100 µM | TGI [18]: > 100 µM | TGI [20]: > 100 µM | TGI [21]: > 100 µM | TGI [58]: > 100 µM | TGI [22]: > 100 µM | TGI [23]: > 100 µM | TGI [24]: > 100 µM | TGI [25]: > 100 µM | TGI [26]: > 100 µM | TGI [27]: > 100 µM | TGI [29]: > 100 µM | TGI [33]: > 100 µM | TGI [34]: > 100 µM | TGI [35]: > 100 µM | TGI [36]: > 100 µM | TGI [37]: > 100 µM | TGI [38]: > 100 µM | TGI [39]: > 100 µM | TGI [40]: > 100 µM | TGI [42]: > 100 µM | TGI [43]: > 100 µM | TGI [44]: > 100 µM | TGI [46]: > 100 µM | TGI [47]: > 100 µM | TGI [48]: > 100 µM | TGI [50]: > 100 µM | TGI [59]: > 100 µM | TGI [52]: > 100 µM | TGI [53]: > 100 µM | TGI [54]: > 100 µM | TGI [55]: > 100 µM | TGI [56]: > 100 µM
